Where “and” joins values, the source holds several entries; their conditions need not be identical. Equal entries are not always repeated.
Experiments:
[1] = system: OVX rats; test: Rat body weight and organ coefficients determination; format: in vivo; conditions: for body weight (fig. S7d): in g (unit assumed)
Protocol: We dissected all rats after 12 weeks of treatment, then took the main organs like heart, liver, spleen, lung, kidney, and thymus. All the organs were removed the attached adipose and weighted with an electronic balance (Sartorius, Germany). Mice spleen and cervical lymph node were also taken and weighted. Organ index (mg/g) was calculated as the following formula: Organ coefficients=Organweight(mg)/Ratormousetotalweight(g)

[2] = system: OVX mice; test: Histological examination of femur (TRAP staining); format: in vivo, mouse
Protocol: The mice left femur was fixed in paraformaldehyde for 72 h, demineralized using 10% Ethylenediamine tetra-acetic acid (EDTA-2Na) for 3 weeks, and then dehydrated with ethanol, clarified with xylene, and embedded with paraffin. Paraffin embedded tissue was sectioned on a rotary microtome. The sectioned tissues were stained with TRAP.

[3] = target: T1, sRANKL (Rattus norvegicus, UniProt Q9ESE2, D175N); test: STD NMR binding assay with sRANKL; conditions: 100 μM protein, 5 mM compound
T1 construct: (1) sRANKL (rat 159-318 aa); His6-sumo (N, cleaved yes); made in house; host or cells: Escherichia coli BL21 (DE3)
T1 sequence (Q9ESE2 159-318 D175N): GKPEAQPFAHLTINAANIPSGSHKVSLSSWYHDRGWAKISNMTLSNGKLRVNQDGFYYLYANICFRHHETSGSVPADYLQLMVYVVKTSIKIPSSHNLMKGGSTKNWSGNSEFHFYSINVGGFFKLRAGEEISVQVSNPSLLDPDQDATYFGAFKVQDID
Protocol: For NMR studies, purified sRANKL or L-RANKL protein samples were buffer exchanged into PBS (Gbico, C10010500BT, pH7.4) using a Millipore spin column (1500 × g for 15 min at 4 °C, repeated six times, each time adding fresh PBS and discarding the flow-through). Protein concentration was determined using BCA method according to the procedure of Pierce^TM BCA Protein Assay Kit (Thermo Fisher Scientific). Compound S3-15 powder was dissolved in H2O as a concentration of 10 mM.
Protein saturation transfer difference (STD) experiments were performed on Bruker Avance III 500 (500 MHz) spectrometer (Columbia University) at 300 K using triple-resonance cryogenic probes optimized for proton detection. All experiments were performed using an independent sample for each experimental measurement as a 500 μL sample in NMR tubes with 100 μM protein and […] S3-15 in final concentration. Uniformly, for STD assay all samples were contained 50 μL protein, 200 μL S3-15 (10 mM in H2O), and 250 μL D2O; for S3-15 two-dimensional spectra reference, samples were 50 μL PBS, 200 μL S3-15 (10 mM in H2O) and 250 μL D2O.

[4] = system: NF-κB, MAPK and PI3K-AKT signaling; test: Western blotting of RANKL-RANK signaling in RAW264.7 cells; format: cell-based, mouse; conditions: RAW264.7, 5 μM
Protocol: The mRNA expression level of S3-15 was measured by RT–qPCR as primary described. Total cellular RNA sample was prepared using RNAiso Plus, followed by reverse transcription with PrimeScript™ MixRT Master Mix reverse transcriptase kit. Then quantitative real-time PCR assays were performed with TB Green™ premix EX Taq™ II kit on an Applied Biosystems. […] signaling inhibiting effect was determined by western blotting. RAW264.7 cells were treated with 5 μM S3-15 with or without sRANKL (100 ng/mL) for 5, 10, 30 and 60 min after starved for 1 h. Then the cells were washed with cold PBS and lysed by RIPA Lysis Buffer. Cell lysates were then processed for Western Blotting analyses. Primary antibody binding was detected using rat secondary antibodies (1:5000) coupled with enhanced chemiluminescence (ECL) reagents (Thermo Scientific) and visualized on Tanon 5200. Primers used for qPCR and antibodies used for western blotting were seen supplementary materials for details.

[5] = target: mouse mRANKL and mouse OPG (Mus musculus, UniProt O35235); test: mRANKL-OPG binding, HEK 293T cells with full length mouse RANKL; format: cell-based
Protocol: (§1) mRANKL-OPG: MC3T3-E1 cells were differentiated by osteoblast differentiation medium (Pythonbio, China) for 2 days. Then cells were exposed to 1 M NaCl for 5 minutes to remove endogenous OPG, washed once in PBS, and fixed with 70% ethanol for 5 minutes at 4 °C. Fixed cells were wash once by PBS and then exposed to PBS that containing 100 ng mouse OPG (Sino, China) or 100 ng mouse OPG with 1 μM S3-15 and incubated for an additional 30 min at 4 °C. Cell layers were washed 2 times with PBS and lysed with 1% triton in PBS. The concentration of OPG in cell lysates were measured with an OPG ELISA kit (USCN, China). Similar proceed were performed using HEK 293 T cells that transfer full length mouse RANKL or human RANKL.

[6] = target: T2, human mRANKL and human OPG (Homo sapiens, UniProt O14788); test: mRANKL-OPG binding, HEK 293T cells with full length human RANKL; format: cell-based
T2 construct: HEK 293 T cells that transfer full length mouse RANKL or human RANKL; expressed in transfected cells; host or cells: HEK293T
Protocol: as §1

mouse mRANKL and mouse OPG, sequence (O35235 whole entry): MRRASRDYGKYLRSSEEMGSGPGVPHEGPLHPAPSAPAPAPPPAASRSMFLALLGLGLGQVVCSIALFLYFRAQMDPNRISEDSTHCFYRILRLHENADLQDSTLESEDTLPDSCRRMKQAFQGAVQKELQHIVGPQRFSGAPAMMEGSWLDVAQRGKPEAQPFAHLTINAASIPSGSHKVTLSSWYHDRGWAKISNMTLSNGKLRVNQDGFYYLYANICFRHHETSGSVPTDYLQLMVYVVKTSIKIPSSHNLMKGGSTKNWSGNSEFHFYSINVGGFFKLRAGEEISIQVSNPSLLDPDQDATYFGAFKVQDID
T2 sequence (O14788 whole entry): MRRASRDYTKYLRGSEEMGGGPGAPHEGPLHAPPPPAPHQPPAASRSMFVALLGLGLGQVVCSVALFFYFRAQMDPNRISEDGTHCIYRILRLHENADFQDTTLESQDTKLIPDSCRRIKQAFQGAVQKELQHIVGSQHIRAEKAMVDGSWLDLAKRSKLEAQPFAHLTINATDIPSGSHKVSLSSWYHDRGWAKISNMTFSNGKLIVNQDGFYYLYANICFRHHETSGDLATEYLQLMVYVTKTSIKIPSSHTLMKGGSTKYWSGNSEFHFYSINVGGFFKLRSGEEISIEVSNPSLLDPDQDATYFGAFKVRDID

SMILES: CC(=O)/C(=N\Nc1ccccc1C(=O)O)C(=O)Nc1ccccn1 [S3-15]
- organ coefficient, Heart ([1]; individual animals): 2.652 and 2.903 and 2.602 and 2.757 and 2.485 and 2.813 and 2.658 and 2.708 and 2.583
- organ coefficient, Kidney ([1]; individual animals): 4.969 and 4.261 and 5.124 and 5.036 and 4.8723 and 5.304 and 5.021 and 5.76 and 4.3689
- organ coefficient, Liver ([1]; individual animals): 19.7988 and 22.7088 and 21.1699 and 21.9894 and 21.577 and 21.8338 and 22.6442 and 26.0414 and 24.0486
- organ coefficient, Lung ([1]; individual animals): 3.321 and 3.475 and 4.3001 and 4.037 and 3.68 and 3.867 and 3.796 and 3.612 and 2.629
- organ coefficient, Spleen ([1]; individual animals): 1.37 and 1.538 and 1.519 and 1.351 and 1.314 and 1.243 and 1.454 and 1.422 and 1.469
- organ coefficient, Thymus ([1]; individual animals): 0.5247 and 0.4616 and 0.2402 and 1.041 and 0.7463 and 1.3304 and 0.3322 and 0.6497 and 0.411
- organ coefficient, Uterus ([1]; individual animals): 0.5222 and 0.6316 and 3.058 and 1.43 and 0.2827 and 0.6792 and 0.9495 and 1.366 and 2.466
- body weight (fig. S7d) ([1]; week 12, individual animals): 538.3 and 392.8 and 372.2 and 391.4 and 440.6 and 486.3 and 462.8 and 403.8 and 390.8
- body weight (fig. S7d) ([1]; week 16, individual animals): 559.2 and 407.9 and 470.2 and 373.7 and 449.4 and 404.7 and 487.3 and 429.1 and 417.2
- body weight (fig. S7d) ([1]; week 20, individual animals): 573.2 and 404.5 and 481.5 and 392.5 and 442.6 and 406.7 and 502.6 and 448.2 and 400
- body weight (fig. S7d) ([1]; week 24, individual animals): 583.9 and 392.6 and 476.6 and 387.2 and 432.3 and 403.3 and 500.6 and 445.5 and 415.3
- numbers of osteoclast, histology [2]: significantly decreased the numbers of osteoclast
- STD-NMR binding to sRANKL [3]: binds to sRANKL
- MAPK signaling (phosphorylation of ERK, JNK, p38) [4]: abrogated MAPK signaling
- PI3K-AKT signaling (phosphorylation of PI3K, AKT) [4]: reduced PI3K-AKT signaling
- RANKL-induced NF-κB signaling (phosphorylation of IKKα, IκBα, p65) [4]: suppresses RANKL-induced NF-κB signaling
- mouse mRANKL and mouse OPG binding ([5]; 293T cells, 1 μM): no effects
- mRANKL-OPG binding signal (fig. S4o) ([5]; OPG+S3-15): 0.9339 and 0.9921 and 0.6577
- human mRANKL and human OPG binding ([6]; 1 μM): no effects
- mRANKL-OPG binding signal (fig. S4p) ([6]; OPG+S3-15): 0.1995 and 0.1932 and 0.1954
